Test results taken from patent publication US20120196918A1, “PREVENTING ISLET INFLAMMATION AND DYSFUNCTION AND MAINTAINING PROPER GLUCOSE LEVELS BY CONTROLLING eIF5A AND ITS HYPUSINATION” (priority 2009, published 2012).

How the values were obtained:
eIF5A [1] = assay: eIF5A and eIF5A-Hyp levels in islets isolated from siRNA-injected mice (immunoblot, 3H-spermidine); format: in vivo, mouse; conditions: si-eIF5A i.p. for three days
Description: To clarify this, islets were isolated from siRNA-injected mice and their function assessed in vitro. […] In order to further characterize this improvement in islet glucose responsiveness, glucose-stimulated Ca2+ mobilization (GSCa) studies were also performed. GSCa is a measure of islet glucose sensitivity that captures the dynamics of the islet glucose response, which is similar to GSIS (31). The GSCa, as measured by the change in fura-2 AM fluorescence ratio after glucose stimulation, was increased in si-eIF5A-treated islets compared to controls, reflecting the functional improvement seen in GSIS (FIG. 3D). This improved GSCa relative to controls persisted 48 and 72 hours post-isolation (data not shown). […]
Immunoblot and nitrite and iNOS assays: Whole cell extracts were resolved by electrophoresis on a 4-20% SDS-polyacrylamide gel, followed by immunoblot using anti-eIF5A1, anti-eIF5A2, anti-iNOS, anti-GFP, or anti-actin primary antibodies and fluorophore-labeled secondary antibodies. Immunoblots were visualized using the Li-Cor® Odyssey® system (Li-Cor Biosciences) and quantitated by scanning fluorometry using Odyssey Imaging v. […] Nitrite was quantitated by measuring nitric oxide-derived nitrite from INS-1 cell culture medium using the Griess reagent (Promega) according to the manufacturer's recommendations. iNOS activity was measured using a commercially available kit (Cayman). […]

iNOS = iNOS activity assay (commercial kit); format: biochemical; conditions: GC7 125 μM
Description: Because GC7 is known to be inactivated by the action amine oxidases, which are abundant in serum, typical studies with GC7 in the literature have used aminoguanidine to inhibit amine oxidases (16). […] To rule out possible adverse effects of GC7 on cell viability, quantitative 2 color fluorescence analysis of live (calcein-AM-positive) and dead (ethidium homodimer-1-positive) cells were performed using fluorescence cytometry.
Immunoblot and nitrite and iNOS assays: Whole cell extracts were resolved by electrophoresis on a 4-20% SDS-polyacrylamide gel, followed by immunoblot using anti-eIF5A1, anti-eIF5A2, anti-iNOS, anti-GFP, or anti-actin primary antibodies and fluorophore-labeled secondary antibodies. Immunoblots were visualized using the Li-Cor® Odyssey® system (Li-Cor Biosciences) and quantitated by scanning fluorometry using Odyssey Imaging v. 3.0 software (Li-Cor Biosciences). Nitrite was quantitated by measuring nitric oxide-derived nitrite from INS-1 cell culture medium using the Griess reagent (Promega) according to the manufacturer's recommendations. iNOS activity was measured using a commercially available kit (Cayman).

INS-1 cells = assay: GSCa and GSIS of INS-1 cells exposed to cytokines; format: cell-based, rat; conditions: preincubation with 125 μM GC7, cytokines 4 h
Description: GSCa and GSIS studies were carried out to assess INS-1 cell function in the presence of cytokines and GC7. […] This asynchronous pattern may be related to the dispersed nature of insulinoma cells compared to f3 cells in an intact islet.
(§1) Cytokine and inhibitor incubation studies: For cytokine incubation assays, a 1000× cocktail of cytokines containing 5 μg/ml IL1β, 10 μg/ml TNFα, and 100 μg/ml IFNγ (all prepared in 0.1% BSA in Tris-buffered saline) was applied at 1× final concentration to groups of 50 islets or 1×10^6 INS-1 (832/13) cells for a total of 4 h at 37° C. For GC7 incubation studies, GC7 was prepared at a stock concentration of 125 mM in 10 mM acetic acid and applied to cultures of 50 islets or 1×10^6 INS-1 cells to obtain the final concentrations indicted in the figures. Where needed, GC7 was protected from amine oxidases in serum by addition of 1 mM aminoguanidine (Sigma). Cells were incubated with GC7 overnight (˜16 h) at 37° C. prior to analysis. […]
GSCa imaging assays: Intracellular Ca^2+ ((Ca2+)i) was measured using the ratiometric Ca^2+ indicator fura-2 AM using a modification of previously published methods (79). The glucose-stimulated (Ca2+)i response (GSCa) was defined as the difference between ratio measurements (340/380 nm fluorescence) in 11 mM vs. 3 mM glucose. Data were analyzed with IP Lab's software version 4.0 (Scanalytics). […]

eIF5A [2] = assay: eIF5A nuclear-to-cytoplasmic translocation in INS-1 cells (immunofluorescence); format: cell-based, rat; conditions: pretreatment, then cytokines 4 h
Description: Given the striking retention of Nos2 transcripts in the absence of eIF5A-Hyp, it was of interest to determine whether the intracellular distribution of eIF5A accounts for its effect on Nos2 nucleo-cytoplasmic shuttling. Immunofluorescence of eIF5A in fixed INS-1 cells, were thus performed. […] Upon treatment of cells with cytokines, there was a shift in the eIF5A distribution pattern from the nucleus to the cytoplasm.
as §1, with “figures.” for “figures. Where needed, GC7 was protected from amine oxidases in serum by addition of 1 mM aminoguanidine (Sigma). Cells were incubated with GC7 overnight (˜16 h) at 37° C. prior to analysis.”
Immunofluorescence: Immunofluorescence of INS-1 cells proceeded essentially as described previously (71), using primary antibodies to eIF5A1 and secondary anti-mouse Alexa-488-conjugated antibody (Invitrogen), or by direct visualization of GFP fusion proteins at 488 nm. […] Quantitation of cytoplasic-to-nuclear ratios of eIF5A staining was performed using Axio-Vision Software, v. […]

Compound | reduction of eIF5A in islets (eIF5A [1]) [%] | inhibition of iNOS activity (iNOS) | GSCa and GSIS after cytokines (INS-1 cells) | cytokine-induced translocation of eIF5A (eIF5A [2])
5′-AACGGAAUGACUUCCAGCUGA-3′ (siSTABLE modification, further chemistry not given here) [si-eIF5A] | ~50 | – | – | –
NCCCCCCCN=C(N)N [GC7] | – | does not appear to inhibit iNOS activity | reverses the suppressive effect of cytokines on GSCa and GSIS almost completely | failed to induce the nuclear to cytoplasmic translocation of eIF5A
